Assay: in vitro
Details: human, hela cells, % viability

Row | Compound | viability at 28.5 h, 10 µM
1 | CN(C)CCN(Cc1ccccc1)C(=O)NCc1ccc(Cl)cc1 [CBK155106] | 94.2%
2 | COc1ccc(-c2nc(-c3cccc(F)c3)cnc2N)cc1OC [CBK063948] | 98.4%
3 | CC1(C)CC(=NNC(=O)CCc2cc(C(C)(C)C)c(O)c(C(C)(C)C)c2)CC(C)(C)N1 [CBK261952] | 108%
4 | CCN(CC)c1c(C)nc2ccc(C(=O)Nc3cc(-c4ccccc4)ccc3OC)cn12 [CBK145980] | 121%
5 | CCOC(=O)N1CCC(NC(=O)c2ccc3nc4ccccc4c(=O)n3c2)CC1 [CBK294447] | 81.1%
6 | CC(=O)Cc1ccccc1OCC(=O)O [CBK261031] | 90.9%
7 | COc1ccc(N2CCN(c3cc(-c4cccc(NC(C)=O)c4)ncn3)CC2)cc1OC [CBK091029] | 96.4%
8 | O=C(O)c1ccc2c(c1)C(=O)N(c1ccc3c(c1)Cc1cc(N4C(=O)c5ccc(C(=O)O)cc5C4=O)ccc1-3)C2=O [CBK261333] | 90.5%
9 | O=C(COc1ccc2ccccc2c1Br)NCc1ccccn1 [CBK267361] | 84.1%
10 | Cn1c(CCC(=O)NCC(C)(C)N2CCCCC2)nc2ccccc21 [CBK281877] | 92.9%
11 | N#C/C(=C\c1ccc(-c2cccc(C(=O)O)c2)o1)c1nc2ncc(Br)cc2[nH]1 [CBK265054] | 96.1%
12 | Cc1c(C(=O)NCCCN2CCOCC2)oc2c1C(=O)CCC2 [CBK270207] | 93.1%
13 | Nc1nc2c(nc(O)n2[C@@H]2O[C@H](CO)[C@H](O)C2O)c(=O)[nH]1 (stereo partly shown) [CBK201297] | 88.5%
14 | Cc1nc(C)c(C(=O)N2C3CCC2c2cc(Cl)cnc2C3)s1 (stereo not shown) [CBK284953] | 103%
15 | CC(C)Cc1ccc(S(=O)(=O)Nc2ccc(C(=O)O)cc2)cc1 [CBK297930] | 98.4%
16 | Cc1cc(CN(C)Cc2c(C)nc3ccc(Cl)cn23)n[nH]1 [CBK281913] | 108%
17 | O=C(COC(=O)c1ccc2c(c1)C(=O)N(c1cccc(Cl)c1)C2=O)c1ccc(Br)cc1 [CBK262324] | 94%
18 | CCOc1ccc2cc(C3CC(c4ccc(C)cc4)=NN3C(=O)CCC(=O)O)c(Cl)nc2c1 (stereo not shown) [CBK297508] | 87.2%
19 | O=C(NCCn1nc2c(cc1=O)CCCCC2)c1ccc(F)cc1 [CBK283279] | 93.3%
20 | O=C(Cc1ccccc1)N/N=C/c1nnco1 [CBK021274] | 121%
21 | Cc1ccc(NC(=O)Cn2cnc3c(cnn3-c3ccc(C)cc3)c2=O)cc1 [CBK287534] | 104%
22 | Cc1cc2ccccc2n2c(=O)n(Cc3cscn3)nc12 [CBK282381] | 102%
23 | CCN(CC)C(=O)N1CCN(CCCC(=O)c2ccc(F)cc2)CC1 [CBK025042C] | 85.4%

Row | Compound | viability at 28.5 h, 10 µM
24 | O=C(c1cccs1)N1CCCN(Cc2cn3ccccc3n2)CC1 [CBK305304] | 102%
25 | FC(F)(F)c1cccnc1OCCOc1ccc(Cl)cc1 [CBK116621] | 90.5%
26 | Cc1noc(C)c1NC(=O)c1cc2ccccc2[nH]1 [CBK200303] | 95.6%
27 | CCN(CC)C(=O)CN1CCC(c2ccccc2F)CC1 [CBK283549] | 94%
28 | CC(C)(C)C(Cn1cccn1)NC(=O)CCC(=O)O (stereo not shown) [CBK286897] | 81.3%
29 | Cc1c(F)cccc1CN1CCCN(S(=O)(=O)c2ccc(-c3ccccc3)cc2)CC1 [CBK062977] | 95.9%
30 | CC(C)Nc1nc2cc(Cl)c(Cl)cc2nc1Sc1nc[nH]n1 [CBK115261] | 93.3%
31 | O=C(Cc1ccn[nH]1)N1CC(O)CC1c1cc(F)ccc1F (stereo not shown) [CBK304872] | 92.3%
32 | CCOC(=O)N1CCN(CC(=O)Nc2cc3c(cc2C(C)=O)OCO3)CC1 [CBK266163] | 99.8%
33 | Cc1cc(S(=O)(=O)Nc2cccc(Br)c2)c(C)cc1Cl [CBK043652] | 80.8%
34 | Cc1csc(CCNCc2c(C(C)C)nn(C)c2N(C)C)n1 [CBK304140] | 89%
35 | CCn1c(=O)n(CCC(=O)NC(C(N)=O)c2ccccc2)c2ccccc21 (stereo not shown) [CBK295196] | 89.7%
36 | CN(C(=O)c1cc(O)nc2ccccc12)c1nccs1 [CBK297778] | 105%
37 | COC(=O)c1ccc(NC(=O)N2CCCC2c2nc(-c3ccccc3)c3ccccn23)cc1 (stereo not shown) [CBK046725] | 102%
38 | C=CCNc1nccnc1-c1cc(OC)c(OC)c(OC)c1 [CBK036872] | 102%
39 | COc1ccc(CN2CCN(c3nccnc3OC3CCCCC3)CC2)cc1 [CBK082830T] | 115%
40 | CCOC(=O)c1c(NC(=S)NCc2ccccn2)sc2c1CCCCC2 [CBK266954] | 106%
41 | CCn1c2cc(C)sc2c2cnn(CC(=O)NC(C)(C)C)c(=O)c21 [CBK284152] | 92.5%
42 | COc1ccccc1-c1ccc(CN2CCC(NC(C)=O)(c3ccc(F)cc3)CC2)cc1 [CBK286349] | 90%
43 | O=C(O)CSc1nc2ccc([N+](=O)[O-])cc2s1 [CBK262232] | 88.4%
44 | O=C(NCCc1cccs1)Nc1cc(Cl)nc(Cl)c1 [CBK043762] | 87.2%
45 | C=C(C)Cn1c(SCC(C)C)nnc1-c1ccc(O)nc1 [CBK200094] | 92.2%
46 | CC(=O)Nc1ccc(S(N)(=O)=O)cc1Cl [CBK028784] | 109%

Row | Compound | viability at 28.5 h, 10 µM
47 | O=C(O)CCCn1cc(NC(=O)Cc2ccccc2F)cn1 [CBK270119] | 96.3%
48 | O=C(CN1CCN(c2ccc(C(F)(F)F)cn2)CC1)c1ccccc1 [CBK074699] | 111%
49 | CC1CN(Cc2cccc(CNc3ncccc3C#N)c2)CCO1 (stereo not shown) [CBK303994] | 95.7%
50 | CCOc1ccc(C(=O)Nc2ccc(-c3nc4cc(C)c(C)cc4o3)cc2)cc1[N+](=O)[O-] [CBK262818] | 94.2%
51 | CCN(CC)CCn1c(NC(=O)CCC2CCNC2)nc2ccccc21 (stereo not shown) [CBK304693] | 92.3%
52 | CCOC(=O)C1CCN(Cn2nc(O)ccc2=O)CC1 [CBK263331] | 90.7%
53 | Cc1cc(C(=O)N2CCC(Oc3nccn(Cc4ccc(S(C)(=O)=O)cc4)c3=O)CC2)ccc1Cl [CBK161883] | 92.6%
54 | CC(C)(C)OC(=O)N1CCC(C2OCc3cc(-c4ccc(C(=O)N5CCOCC5)o4)ccc3O2)CC1 (stereo not shown) [CBK173615] | 85.6%
55 | CSc1nsc(SCC(=O)Nc2ccccc2C#N)n1 [CBK269826] | 95.1%
56 | OCC(O)CN1CCc2ccccc21 (stereo not shown) [CBK260896] | 101%
57 | CC(C)OCC(O)Cn1c(N/N=C/c2ccccc2O)nc2c1c(=O)[nH]c(=O)n2C (stereo not shown) [CBK139853] | 101%
58 | CCC(C)(Sc1nc(C)ccc1C#N)C(=O)O (stereo not shown) [CBK287098] | 88.7%
59 | CC(=O)N1CCN(C(=O)c2cnc(-c3ccc(Cl)cc3)c(-c3ccco3)c2)CC1 [CBK037518] | 98.1%
60 | Cc1ccccc1NC(=O)N1CCC2(CC1)NCCc1c2[nH]c2ccc(O)cc12 [CBK046904] | 91%
61 | Cc1cc(-c2nnc(SCC(=O)N3CCCCC3)o2)no1 [CBK268731] | 86.6%
62 | O=C(CN1CCCC1=O)NC(Cc1cccs1)c1nccs1 (stereo not shown) [CBK282177] | 104%
63 | CCc1csc(CCNc2ccc(-c3nc(C4CC4)no3)cn2)n1 [CBK306608] | 91.3%
64 | c1ccc(CN2CCN(c3nccnc3OCc3cccnc3)CC2)cc1 [CBK083129T] | 91.3%
65 | O=C(N/N=C\c1ccc(-c2ccc(Cl)c(Cl)c2)o1)C1COc2cc3ccccc3cc2O1 (stereo not shown) [CBK262834] | 99%
66 | COc1ccc(C)cc1NC(=O)CCN1CCN(C)CC1 [CBK264216] | 102%
67 | O=C(O)CCC(=O)N1CCN(S(=O)(=O)c2ccc(F)cc2)CC1 [CBK286956] | 93.2%
68 | Cc1ccc2cc(CN(Cc3ccco3)S(C)(=O)=O)c(O)nc2c1 [CBK269409] | 105%
69 | CSCCCNC(=O)c1cc(-c2ccc(C(=O)N3CCOCC3)cc2)cnc1N [CBK158568] | 95.5%

Row | Compound | viability at 28.5 h, 10 µM
70 | CC(=O)Nc1ccc2nc(NC(=O)c3ccc(C#N)cc3)sc2c1 [CBK287309] | 92.4%
71 | COc1cccc2c1CCN=C2C[C@H]1CN(C(=O)C2CC2)CC[C@H]1CC(=O)O [CBK289164] | 94.5%
72 | Oc1ccc(-n2cc(-c3ccccc3C(F)(F)F)nn2)cc1 [CBK112971] | 95.5%
73 | CCC1CCCCN1C(=O)c1ccnc(C)c1 (stereo not shown) [CBK081093] | 91.3%
74 | CC(C)(C)c1[nH]c2ncccc2c1CN1CCSCC1 [CBK285340] | 93.6%
75 | CC(=O)NC(CSc1cc(C)nc2ccc(F)cc12)C(=O)O (stereo not shown) [CBK286815] | 91.7%
76 | Cc1ccnn1CCNC(=O)CCc1ccc(Cl)cc1 [CBK283182] | 91.1%
77 | O=C(O)c1ccc(NS(=O)(=O)c2ccc(Br)cc2)cc1 [CBK034058] | 97.6%
78 | CN1CCN(c2nc(-c3ccc(-c4ccccc4)cc3)cnc2N)CC1 [CBK063421] | 106%
79 | COc1cncc(-c2cnc3[nH]c(=O)n(C4CCCCC4)c3n2)c1 [CBK064230] | 97.8%
80 | CC(C)(C)c1ccc(C(=O)N2CCCCC2CO)cc1 (stereo not shown) [CBK073951] | 86.4%
81 | Cc1ccc(NC(=O)CCN2C(=O)c3cccc([N+](=O)[O-])c3C2=O)c(Br)c1 [CBK263172] | 98%
82 | COc1ccc(C(C)c2cc3c(cc2O)OCO3)cc1 (stereo not shown) [CBK200100] | 90.3%
83 | NS(=O)(=O)c1ccccc1Sc1ccccc1 [CBK020524] | 89%
84 | CC(C)N1CCCC(CNC(=O)C2Cc3cc(Cl)ccc3O2)C1 (stereo not shown) [CBK282686] | 92.8%
85 | CCC1CCCCN1C(=O)c1cccc(C)c1C (stereo not shown) [CBK081501] | 96.5%
86 | c1cn(CC2(Cn3ccnc3)COC2)cn1 [CBK021839] | 108%
87 | CC(Oc1ccc(F)cc1)C(=O)NCCN1CCOCC1 (stereo not shown) [CBK265508] | 99.4%
88 | COc1ccc(C(=O)[C@H]2CCCN(C(=O)C3CC3)C2)cc1 [CBK284329] | 91.4%
89 | COC(=O)c1cc(Cl)c2ccccc2n1 [CBK012428] | 80.4%
90 | Cc1cccc(CN(Cc2ccccc2)C(=O)CCc2ccncc2)n1 [CBK282101] | 99.1%
91 | CN(C)c1ccc(-c2nccnc2NCc2ccc(S(C)(=O)=O)cc2)cc1 [CBK036902] | 104%

Source: paper PMC12040169 (PLOS Biology, 2025)
